Reference: PubChem BioAssay (NCI)
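Cultured in 96-well plates, cells were exposed to test compound for 48 hours across five concentrations. GI50 is the concentration that inhibits growth by half. Definition used: TGI = concentration required for complete inhibition of growth.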

Experiments:
Experiment in all cases: inhibition of tumour cell growth, NCI panel, 48 h
MDA-MB-435 = test system: MDA-MB-435
ACHN renal = test system: ACHN renal
HOP-62 NSCLC = test system: HOP-62 NSCLC
OVCAR-5 ovarian = test system: OVCAR-5 ovarian
T-47D breast = test system: T-47D breast
EKVX NSCLC = test system: EKVX NSCLC
HCT-116 colon = test system: HCT-116 colon
PC-3 prostate = test system: PC-3 prostate
CCRF-CEM leukemia = test system: CCRF-CEM leukemia
MOLT-4 leukemia = test system: MOLT-4 leukemia

| SMILES | GI50 (MDA-MB-435) | TGI (MDA-MB-435) [µM] | GI50 (ACHN renal) | TGI (ACHN renal) [µM] | GI50 (HOP-62 NSCLC) [µM] | TGI (HOP-62 NSCLC) [µM] | GI50 (OVCAR-5 ovarian) | TGI (OVCAR-5 ovarian) [µM] | GI50 (T-47D breast) | TGI (T-47D breast) [µM] | GI50 (EKVX NSCLC) | TGI (EKVX NSCLC) | GI50 (HCT-116 colon) | TGI (HCT-116 colon) [µM] | GI50 (PC-3 prostate) [µM] | TGI (PC-3 prostate) [µM] | GI50 (CCRF-CEM leukemia) | TGI (CCRF-CEM leukemia) | GI50 (MOLT-4 leukemia) | TGI (MOLT-4 leukemia) |
| --- | --- | --- | --- | --- | --- | --- | --- | --- | --- | --- | --- | --- | --- | --- | --- | --- | --- | --- | --- | --- |
| O=C1CSC(c2ccc(-c3nc4ccccc4s3)cc2)=N1 | 7.54 µM | 24.8 | 55.6 µM | > 100 | 43.7 | > 100 | 26.3 µM | > 100 | 90.9 µM | > 100 | 1.81 µM | 13.5 µM | 24.7 µM | > 100 | > 100 | > 100 | – | – | – | – |
| N#Cc1ccc(OC(=O)Nc2ccc(Cl)c(Cl)c2)cc1 | 3.17 µM | 22.4 | 2.97 µM | 14.5 | 7.5 | 60.7 | 5.79 µM | > 100 | 3.15 µM | 12.8 | – | – | 3.4 µM | > 100 | 2.87 | 21.6 | 3.08 µM | 16.1 µM | 3.71 µM | 27.8 µM |
| CC1=CC(=O)C(C(O)(C(F)(F)F)C(F)(F)F)C(C)(C)C1 (centres undefined) | – | > 10 | – | > 10 | – | > 10 | – | – | – | > 10 | – | > 10 µM | – | > 10 | – | > 10 | – | > 10 µM | – | > 10 µM |
| Clc1ccc(N=CNc2ccc(-c3nc4ccccc4o3)cc2)cc1 | 21.1 µM | 49.8 | 24.4 µM | > 100 | > 100 | > 100 | 33.3 µM | 99.6 | 13.1 µM | 52.1 | 0.241 µM | 2.84 µM | > 100 µM | > 100 | 41.7 | > 100 | – | – | 60.7 µM | > 100 µM |
| Cc1ccc(Nc2nnc(-c3ccc4c(c3)OCO4)o2)c(C)c1 | – | > 100 | – | > 100 | – | > 100 | – | > 100 | – | > 100 | – | > 100 µM | – | > 100 | – | > 100 | – | – | – | > 100 µM |
| Cc1cc(C)n(-c2nnc3n2N=C(c2ccc(-c4ccccc4)cc2)CS3)n1 | 1.71 µM | 4.46 | 3.98 µM | > 100 | 6.17 | > 100 | 5.3 µM | > 100 | 4.05 µM | > 100 | – | – | 3.39 µM | > 100 | 3.15 | > 100 | 3.12 µM | > 100 µM | 3.66 µM | > 100 µM |
| COc1ccc(Cc2cnc(NC(=O)c3ccc4c(c3)OCCO4)s2)cc1 | – | – | 0.0553 µM | > 100 | 0.0602 | > 100 | 0.0866 µM | > 72.6 | 2.95 µM | > 100 | 0.0596 µM | > 100 µM | 0.032 µM | > 38.8 | 0.0303 | > 100 | 0.0388 µM | > 100 µM | 0.0504 µM | > 100 µM |
| CCOC(CN(C)C(=S)Nc1cccc2ccccc12)OCC | – | > 10 | – | > 10 | – | > 10 | – | – | – | > 10 | – | > 10 µM | – | > 10 | – | > 10 | – | > 10 µM | – | > 10 µM |
| COC(=O)c1cc(/C=C/c2ccc(S(N)(=O)=O)cc2)ccc1O | 35.6 µM | > 100 | 29.6 µM | > 100 | 41.7 | > 100 | 59.2 µM | > 100 | – | – | 29.3 µM | > 100 µM | 20 µM | > 100 | 30.7 | > 100 | 41 µM | > 100 µM | 73.1 µM | > 100 µM |
| C=CCN1CC2CON(C(=O)C(OC)(c3ccccc3)C(F)(F)F)C2C1C(C)C (centres undefined) | 41.8 µg/mL | – | 38.1 µg/mL | – | – | – | 32 µg/mL | – | 34.5 µg/mL | – | 33.6 µg/mL | 99.1 µg/mL | 24.2 µg/mL | – | – | – | 15.2 µg/mL | 62 µg/mL | 15 µg/mL | 46.6 µg/mL |
| C[C@]12CC[C@@H]3c4ccc(O)c([N+](=O)[O-])c4CC[C@H]3[C@@H]1CC[C@@H]2NS(=O)(=O)c1cccc(Br)c1 | 1.53 µM | 2.98 | 2.59 µM | 8.17 | 1.9 | 3.54 | 2.16 µM | 5.17 | 1.8 µM | 3.96 | – | – | 1.92 µM | 4.17 | 2.56 | 11.1 | 2.65 µM | 10.4 µM | 2.98 µM | 13.4 µM |
| Clc1cc(Cl)cc(Nc2ccc3cc(OCCCN4CCOCC4)ccc3n2)c1 | – | – | – | – | – | – | – | – | 3.01 µM | 14.1 | 3.39 µM | > 100 µM | – | – | – | – | – | – | 1.77 µM | 5.81 µM |
| CCC(=O)Nc1ccc(N=NN(C)C)cc1 | – | > 100 | – | > 100 | – | > 100 | – | > 100 | – | 30.4 | – | > 100 µM | – | > 100 | – | > 100 | – | – | – | 43.4 µM |
| O=C1C(=O)N(c2cc(Cl)ccc2Cl)C(=O)C(=O)C1c1nc2ccccc2o1 | – | – | – | > 100 | – | > 100 | – | > 100 | – | – | – | > 100 µM | – | > 100 | – | – | – | > 100 µM | – | > 100 µM |
| CC(O)CC(O)(C(F)(F)F)C(F)(F)F (centres undefined) | – | > 10 | – | > 10 | – | > 10 | – | – | – | > 10 | – | > 10 µM | – | > 10 | – | > 10 | – | > 10 µM | – | > 10 µM |
| N.N.NCCCCCCCCCN.O=C([O-])CC(=O)[O-].O=C([O-])CC(=O)[O-].[Pt+4].[Pt+4] | – | – | 90.3 µM | > 100 | > 100 | > 100 | > 100 µM | > 100 | – | – | > 100 µM | > 100 µM | > 100 µM | > 100 | – | – | 21.1 µM | > 100 µM | > 100 µM | > 100 µM |
| Cc1cccc(N=C2NC(=O)C(CC(=O)Nc3cccc(C)c3C)S2)c1 (centres undefined) | – | – | – | > 100 | – | > 100 | – | > 100 | – | – | – | > 100 µM | – | > 100 | – | – | – | > 100 µM | – | > 100 µM |
